# Data from ChEMBL document CHEMBL3885881, “DrugMatrix”.
# Organism: Rattus norvegicus
# Assay: DrugMatrix - Regimen: Daily Repeat
# Format: toxicity, organism-based, Sprague-Dawley
# Set-up: regimen Daily Repeat, gender Male, age 6-8 weeks
# Details: in vivo, po, route oral GAVAGE, vehicle .5 % CMC; for ABSOLUTE BASOPHIL / ABSOLUTE EOSINOPHIL / ABSOLUTE LYMPHOCYTE / ABSOLUTE MONOCYTE / ABSOLUTE SEGMENTED NEUTROPHIL / BASOPHIL / EOSINOPHIL / ERYTHROCYTE COUNT / HEMATOCRIT / HEMOGLOBIN / LEUKOCYTE COUNT / LYMPHOCYTE / MEAN CORPUSCULAR HEMOGLOBIN / MEAN CORPUSCULAR HEMOGLOBIN CONCENTRATION / MEAN CORPUSCULAR VOLUME / MONOCYTE / NEUTROPHIL / NUCLEATED RED BLOOD CELLS / PLATELET COUNT: tissue Blood; for ALANINE AMINOTRANSFERASE / ALBUMIN / ALKALINE PHOSPHATASE / ASPARTATE AMINOTRANSFERASE / BLOOD UREA NITROGEN / CARBON DIOXIDE / CHLORIDE / CHOLESTEROL / CREATINE PHOSPHOKINASE / CREATININE / GLUCOSE / LACTATE DEHYDROGENASE / LIPASE / PHOSPHORUS / POTASSIUM / SODIUM / TOTAL BILIRUBIN / TOTAL PROTEIN / URIC ACID: tissue Plasma
# [1] = 100 mg/kg, 120 h, dose level Low, time 5 day
# [2] = 2000 mg/kg, 72 h, dose level High, time 3 day
# [3] = 2000 mg/kg, 120 h, dose level High, time 5 day
compound,measurement,setting,value
CN/C(=N/CCSCc1nc[nH]c1C)NC#N [CIMETIDINE],ABSOLUTE BASOPHIL,[1],0 CELLS/uL
same,ABSOLUTE EOSINOPHIL,[1],36.33 CELLS/uL
same,ABSOLUTE LYMPHOCYTE,[1],10440.33 CELLS/uL
same,ABSOLUTE MONOCYTE,[1],206 CELLS/uL
same,ABSOLUTE SEGMENTED NEUTROPHIL,[1],1017.33 CELLS/uL
same,BASOPHIL,[1],0%
same,EOSINOPHIL,[1],0.33%
same,ERYTHROCYTE COUNT,[1],5.58 x10E6/uL
same,HEMATOCRIT,[1],34.03%
same,HEMOGLOBIN,[1],13.43 G/DL
same,LEUKOCYTE COUNT,[1],11.7 x10E3/uL
same,LYMPHOCYTE,[1],89.33%
same,MEAN CORPUSCULAR HEMOGLOBIN,[1],24.07 pg
same,MEAN CORPUSCULAR HEMOGLOBIN CONCENTRATION,[1],39.47 G/DL
same,MEAN CORPUSCULAR VOLUME,[1],61 fL
same,MONOCYTE,[1],1.67%
same,NEUTROPHIL,[1],8.67%
same,NUCLEATED RED BLOOD CELLS,[1],0 /100WBC
same,PLATELET COUNT,[1],685.33 x10E3/uL
same,ALANINE AMINOTRANSFERASE,[1],61.33 u/L
same,ALBUMIN,[1],4.23 G/DL
same,ALKALINE PHOSPHATASE,[1],391.33 u/L
same,ASPARTATE AMINOTRANSFERASE,[1],101.67 u/L
same,BLOOD UREA NITROGEN,[1],15.33 mg/dL
same,CARBON DIOXIDE,[1],28 mmol/L
same,CHLORIDE,[1],101 MEQ/L
same,CHOLESTEROL,[1],69 mg/dL
same,CREATINE PHOSPHOKINASE,[1],711.67 u/L
same,CREATININE,[1],0.18 mg/dL
same,GLUCOSE,[1],163 mg/dL
same,LACTATE DEHYDROGENASE,[1],293 u/L
same,LIPASE,[1],10.33 u/L
same,PHOSPHORUS,[1],11.6 mg/dL
same,POTASSIUM,[1],6.16 MEQ/L
same,SODIUM,[1],141.5 MEQ/L
same,TOTAL BILIRUBIN,[1],0.2 mg/dL
same,TOTAL PROTEIN,[1],5.97 G/DL
same,URIC ACID,[1],1.67 mg/dL
same,ABSOLUTE BASOPHIL,[2],0 CELLS/uL
same,ABSOLUTE EOSINOPHIL,[2],50 CELLS/uL
same,ABSOLUTE LYMPHOCYTE,[2],13681 CELLS/uL
same,ABSOLUTE MONOCYTE,[2],50 CELLS/uL
same,ABSOLUTE SEGMENTED NEUTROPHIL,[2],2252.33 CELLS/uL
same,BASOPHIL,[2],0%
same,EOSINOPHIL,[2],0.33%
same,ERYTHROCYTE COUNT,[2],5.85 x10E6/uL
same,HEMATOCRIT,[2],36.93%
same,HEMOGLOBIN,[2],14.33 G/DL
same,LEUKOCYTE COUNT,[2],16.03 x10E3/uL
same,LYMPHOCYTE,[2],84.33%
same,MEAN CORPUSCULAR HEMOGLOBIN,[2],24.5 pg
same,MEAN CORPUSCULAR HEMOGLOBIN CONCENTRATION,[2],38.8 G/DL
same,MEAN CORPUSCULAR VOLUME,[2],63.17 fL
same,MONOCYTE,[2],0.33%
same,NEUTROPHIL,[2],15%
same,NUCLEATED RED BLOOD CELLS,[2],0.33 /100WBC
same,PLATELET COUNT,[2],1342.33 x10E3/uL
same,ALANINE AMINOTRANSFERASE,[2],56 u/L
same,ALBUMIN,[2],4.13 G/DL
same,ALKALINE PHOSPHATASE,[2],392.67 u/L
same,ASPARTATE AMINOTRANSFERASE,[2],83.33 u/L
same,BLOOD UREA NITROGEN,[2],18 mg/dL
same,CARBON DIOXIDE,[2],32.33 mmol/L
same,CHLORIDE,[2],98.33 MEQ/L
same,CHOLESTEROL,[2],86.67 mg/dL
same,CREATINE PHOSPHOKINASE,[2],295 u/L
same,CREATININE,[2],0.24 mg/dL
same,GLUCOSE,[2],145.67 mg/dL
same,LACTATE DEHYDROGENASE,[2],334.33 u/L
same,LIPASE,[2],17 u/L
same,PHOSPHORUS,[2],11.87 mg/dL
same,POTASSIUM,[2],7.13 MEQ/L
same,SODIUM,[2],141.97 MEQ/L
same,TOTAL BILIRUBIN,[2],0.17 mg/dL
same,TOTAL PROTEIN,[2],5.67 G/DL
same,URIC ACID,[2],1.5 mg/dL
same,ABSOLUTE BASOPHIL,[3],0 CELLS/uL
same,ABSOLUTE EOSINOPHIL,[3],104.67 CELLS/uL
same,ABSOLUTE LYMPHOCYTE,[3],19446 CELLS/uL
same,ABSOLUTE MONOCYTE,[3],531.33 CELLS/uL
same,ABSOLUTE SEGMENTED NEUTROPHIL,[3],1118 CELLS/uL
same,BASOPHIL,[3],0%
same,EOSINOPHIL,[3],0.67%
same,ERYTHROCYTE COUNT,[3],5.6 x10E6/uL
same,HEMATOCRIT,[3],34.37%
same,HEMOGLOBIN,[3],14 G/DL
same,LEUKOCYTE COUNT,[3],21.2 x10E3/uL
same,LYMPHOCYTE,[3],91.33%
same,MEAN CORPUSCULAR HEMOGLOBIN,[3],25.03 pg
same,MEAN CORPUSCULAR HEMOGLOBIN CONCENTRATION,[3],40.77 G/DL
same,MEAN CORPUSCULAR VOLUME,[3],61.33 fL
same,MONOCYTE,[3],2.33%
same,NEUTROPHIL,[3],5.67%
same,NUCLEATED RED BLOOD CELLS,[3],0 /100WBC
same,PLATELET COUNT,[3],1356.67 x10E3/uL
same,ALANINE AMINOTRANSFERASE,[3],58 u/L
same,ALBUMIN,[3],4.07 G/DL
same,ALKALINE PHOSPHATASE,[3],363 u/L
same,ASPARTATE AMINOTRANSFERASE,[3],88.33 u/L
same,BLOOD UREA NITROGEN,[3],19.33 mg/dL
same,CARBON DIOXIDE,[3],25 mmol/L
same,CHLORIDE,[3],100.33 MEQ/L
same,CHOLESTEROL,[3],60 mg/dL
same,CREATINE PHOSPHOKINASE,[3],520.33 u/L
same,CREATININE,[3],0.3 mg/dL
same,GLUCOSE,[3],225 mg/dL
same,LACTATE DEHYDROGENASE,[3],221.33 u/L
same,LIPASE,[3],8 u/L
same,PHOSPHORUS,[3],13.4 mg/dL
same,POTASSIUM,[3],5.31 MEQ/L
same,SODIUM,[3],143.57 MEQ/L
same,TOTAL BILIRUBIN,[3],0.2 mg/dL
same,TOTAL PROTEIN,[3],5.73 G/DL
same,URIC ACID,[3],1.9 mg/dL
